Data taken from US20240100012A1, “PHARMACEUTICAL DOSAGE FORM” (priority 2021, published 2024).

Assays:
[1] = Aqueous solubility of escitalopram base; assay type: physicochemical; details: crystalline and/or oil forms
[2] = Solubility of escitalopram base in organic solvents; assay type: physicochemical

CN(C)CCC[C@@]1(c2ccc(F)cc2)OCc2cc(C#N)ccc21 [escitalopram base, S-1-[3-(dimethylamino)propyl]-1-(4-fluorophenyl)-1,3-dihydro-5-isobenzofurancarbonitrile]
aqueous solubility [1]: low aqueous solubility | solubility in organic solvents ([2]; crystalline or oil, organic solvents such as N-Methyl-2-pyrrolidone (NMP) and Dimethyl sulfoxide (DMSO)): extremely high solubility | escitalopram content of solutions that can be prepared in organic solvents ([2]; oil forms of escitalopram base, organic solvents): more than 70 % wt
